# Measured values published in paper PMC7071032, “In Vitro Inhibition of Hsp90 Protein by Benzothiazoloquinazolinequinones Is Enhanced in The Presence of Ascorbate. A Preliminary In Vivo Antiproliferative Study” (Molecules, 2020).
# Like-named read-outs stand apart in the source and are kept apart here.
# Key:
# [1] = test system: panel of cancer cells (T24, DU-145, MCF-7); assay: MTT reduction assay, panel of cancer cells (means, ranges, selectivity index); type: cell-based, human; settings: for IC50: Homo sapiens
# Procedure: (§1) As positive control, two well-known anticancer drugs, namely TAM and 5-FU, were also tested on these cell lines. […] Regarding 5-FU, it is a broad-spectrum chemotherapeutic drug used to treat a variety of malignancies. Particularly, it has a long history of use against bladder tumors.
# Such a selective index was calculated as the ratio between IC50 values of healthy cells/IC50 values in cancer cells.
# (§2) Cells were seeded into 96-well plates at a density of 10,000 cells/well for 24 h and then incubated for 48 h with or without the quinone derivatives. […] The IC50 values were determined using the GraphPad Prism software (San Diego, CA, USA). Further incubation procedures and optical density reading of colored solutions were performed according to Benites et al..
# [2] = test system: transplantable primary liver tumor (TLT); assay: In vivo antitumor activity in TLT-bearing mice; settings: TLT-bearing NMRI mice
# Procedure: To go one-step further, we assessed the effect of the quinone derivative 15 in the TLT-bearing mice model. The dose of 15 used in this study (i.e., 10 mg/kg) was calculated according to doses of menadione, previously used by Verrax et al.. In mice treated with 15, the calculated mean survival time was 24.0 days as compared to 21.9 days in control untreated-animals, representing an increase in life span of 9.6 % (Figure 3). Although this ILS represents a marginal effect as compared to a minimum optimal effect […], a small trend can be inferred supporting a potential protective activity by 15, that requires to be further confirmed. […] To go further, studies are intended in the near future using a larger range of doses of 15.
# Figure 3 Kaplan–Meier diagram in groups of TLT-bearing NMRI mice receiving intraperitoneal (i.p.) saline (control untreated animals). Compound 15 was also i.p. administered as 10 mg/kg body weight, 24 h after i.p. transplantation of TLT cells.
# Young adult male NMRI mice (25–30 g) were obtained from Janvier Labs (Saint-Berthevin, France). After their placement at the University Animal Facilities, animals were randomized according to their body weight. They were housed in groups of five mice per cage (40 × 25 × 15 cm^3) in a constant temperature environment (22 °C) with alternating 12 h day/night cycles receiving standard food (UAR, Villemoisson-sur-Orge, France) and tap water ad libitum.
# Taper et al. first observed the transplantable primary liver tumor (TLT) in 1966 in a two-month old female Swiss Webster mouse. […] Fritzler et al. further characterized the ultrastructure of TLT hepatoma ascites cells. Regarding our experimental conditions, the TLT tumor was maintained by weekly intraperitoneal (i.p.) transplantation (10^4 cells/mice). […] Then, mice mortality was daily recorded. […]
# The antitumor activity was calculated according to Geran et al. using the mean survival time (m.s.t.) at day 30 and the increase in life span (ILS) calculated as ILS = [([…]) − 1] × 100. […]
# [3] = test system: non-tumor fibroblasts AG 1523; assay: MTT reduction assay, non-tumor fibroblasts; type: cell-based; settings: Homo sapiens, AG1523, 48 h incubation, read-out: IC50 ± SEM AG 1523
# Procedure: as §1
# Cell culture conditions were the same as reported elsewhere. Briefly, cell lines were kept in DMEM containing 10% fetal calf serum. In addition, 100 U/mL of penicillin and 100 µg/mL streptomycin from Gibco (Grand Island, NY, USA) were further added. Cell cultures were kept at 37 °C under an atmosphere of 95% air/5% CO2 and 100% humidity. Sodium L-ascorbate, menadione (vitamin K3), TAM, and 5-FU were purchased from Sigma (St. Louis, MO, USA).
# The cytotoxicity of the quinones was assessed by following the reduction of MTT (3-(4,5-dimethylthiazol-2-yl)-2,5-diphenyltetrazolium bromide) to formazan blue and the capability of cancer cells to proliferate, namely a clonogenic assay.
# as §2
# [4] = test system: Hsp90; assay: Immunoblot of Hsp90 protein integrity in TLT cells; type: cell-based, murine; settings: 5 µM plus 1 mM ascorbate, 4 h
# Procedure: (§3) Cancer cells were incubated for 4 h with 5 µM menadione (K3) or 15 either in the absence or in the presence of 1 mM ascorbate (Asc). Ctl represents control untreated cells. * p < 0.05 as compared to control conditions. Cancer cells were incubated for 4 h in the absence and in the presence of compounds. Afterward, cells were washed twice with ice-cold PBS and then resuspended in RIPA lysis buffer supplemented with 1% protease inhibitor cocktail (Sigma–Aldrich, St. Louis, MO, USA) and 3% phosphatase inhibitor cocktail (Calbiochem, Darmstadt, Germany). Treatment of samples and electrophoresis conditions were conducted as previously reported. Mouse monoclonal primary antibodies against hsp90α/β C-terminus (F8), and against β-actin (clone AC-15), were purchased from Santa Cruz Biotechnology (Santa Cruz, CA, USA) and from Abcam (Cambridge, UK), respectively. Rabbit polyclonal antibodies against PARP were purchased from BD Biosciences (San Diego, CA, USA). Goat anti-rabbit antibody and rabbit anti-mouse polyclonal antibody were purchased respectively from Chemicon International (Temecula, CA, USA) and DakoCytomation (Glostrup, Denmark).
# [5] = test system: PARP; assay: Immunoblot of PARP protein integrity in TLT cells; type: cell-based, murine; settings: 5 µM plus 1 mM ascorbate, 4 h
# Procedure: as §3
# [6] = test system: DU-145 (prostate) cells; parameters: method as in doi:10.1016/j.tetlet.2015.07.034; settings: read-out: IC50 ± SEM DU-145, MTT, data from Valderrama et al. ref 16; cited from earlier work
smiles,measurement,setting,value
Cc1ccc2c(c1)SC1=NC3=C(C(=O)c4ccccc4C3=O)C(C)(O)N12 (stereo not shown) [Compound 15],IC50,[1]; read-out: IC50 values on the panel of cancer cells (range over cell lines),110 to 1770 nM
same,IC50,[1]; read-out: mean IC50 value calculated from the individual IC50 values of the three cancer cell lines,1100 to 1610 nM
same,MSI: mean selective index,"[1]; IC50 values of fibroblasts (AG 1523)/IC50 values of tumor cells (T24, DU-145, MCF-7)",29.4
same,mean survival time (m.s.t.),"[2]; 10 mg/kg i.p. single dose 24 h after i.p. transplantation, control 21.9 days",24.0 days
same,increase in life span (ILS),"[2]; 10 mg/kg i.p. single dose, vs control untreated animals",9.6%
same,mean of individual mouse survival,"[2]; 10 mg/kg i.p., control 21.2 ± 1.6 days, t-test p = 0.262, no significant difference",22.8 ± 6.1 days
same,IC50,[3],32300 ± 3310 nM
same,Hsp90 protein cleavage,[4],oxidative cleavage of Hsp90
same,PARP degradation,[5],not PARP degradation
same,IC50,[6],110 ± 30 nM
